Converted amounts (≈) assume the structure as drawn. Structures can show the parent of a compound that is named as a salt. Where two headings read alike, the source gives them in different places.
Legend:
HeLa S-3 cells = experiment: HeLa S-3 cell growth inhibition test; type: cell-based; conditions: Homo sapiens, 96 h, read-out: minimum growth inhibition concentration (MIC)
Protocol: (a) HeLa S-3 Cell Growth Inhibition Test
A test compound was appropriately diluted with a liquid medium (a minimum essential medium containing a 10% fecal calf serum). The resulting liquid was poured into each well of a 96-well micro titer plate, in an amount of 0.1 ml/well. Then, HeLa S-3 cells were diluted with the same liquid medium so that the cell concentration became 2×10^4 cells/ml, and the resulting liquid was poured into each well of the above plate in an amount of 0.1 ml/well. The resulting plate was allowed to stand in a CO2 gas incubator of 37° C. for 4 days, to effect incubation. After the incubation, the supernatant liquid in each well was removed and fixation by ethanol was effected for 10 minutes. The fixed cells were tinted with a Giemsa's staining solution to determine the minimum growth inhibition concentration (MIC) of test compound for HeLa S-3 cells.

Ehrlich solid cancer = experiment: Effect on Ehrlich solid cancer (tumor weight in mice); type: in vivo, ddY strain mice; conditions: Mus musculus, iv, 240 h; for response vs control in vivo at 10 mg/kg: 10 mg/kg i.v.; for response vs control in vivo at 14 mg/kg: 14 mg/kg i.v.; for response vs control in vivo at 7 mg/kg: 7 mg/kg i.v.; for response vs control in vivo at 50 mg/kg: 50 mg/kg i.v.
Protocol: (c) Effect on Ehrlich Solid Cancer 5×10^6 Ehrlich cells were transplanted to ddY strain mice in groups of 7 members (male, 5-week old, weight=about 25 g) subcutaneously at the left groin on day 0. […] Only the aqueous 5% glucose solution was administered to the control group. […] From the (a) and (b) was calculated T/C (%), using the following equation: T/C (%)=(a/b)×100

L-1210 ascites tumor = experiment: Effect on L-1210 ascites tumor (survival of tumor-transplanted mice); type: in vivo, CDF1 strain mice; conditions: Mus musculus, L1210, ip, 720 h, survival observed 30 days, read-out: prolongation of survival time T/C; for response vs control in vivo at 5 mg/kg: 5 mg/kg i.p.; for response vs control in vivo at 25 mg/kg: 25 mg/kg i.p.; for response vs control in vivo at 1 mg/kg: 1 mg/kg i.p.
Protocol: (b) Effect on L-1210 Ascites Tumor
1×10^5 L-1210 cells were intraperitoneally transplanted to CDF1 strain mice in groups of 6 members (male, 5-week old, weight =about 25 g) on day 0. A test compound dissolved in an aqueous 5% glucose solution was intraperitoneally administered to the test group of the above mice twice on day 1 and day 5. Only the aqueous 5% glucose solution was administered to the control group. Incidentally, the 25 mg/kg administration of the test compound No. 30 was effected only once on day 1. There were examined (a) the average survival days of the test group and (b) the average survival days of the control group. The examination period for survival days was 30 days. From the (a) and (b) was calculated a prolongation of survival time [T/C (%)], using the following equation: […]

[1] = HeLa S-3 cells, 37° C., 4 days, Giemsa's staining
[2] = twice on day 1 and day 5, day 10, read-out: T/C (average tumor weight, treated/control)
[3] = only once on day 1, day 10, read-out: T/C (average tumor weight, treated/control)

SMILES | MIC (HeLa S-3 cells; [1]) [µg/mL] | also measured
CCN(CC)CCN1C(=O)c2cc(OC)c3[nH]c4ccc(O)cc4c3c2C1=O.Cl [compound 70, N-(2-diethylaminoethyl)-6-hydroxy-1-methoxycarbazole-3,4-dicarboximide hydrochloride] | 0.16 | response vs control in vivo at 10 mg/kg (Ehrlich solid cancer; [2]): 18%
CN(C)CCN1C(=O)c2ccc3c(c2C1=O)c1cc(O)ccc1n3C [compound 30] | 0.1 (≈ 0.296 µM) | response vs control in vivo at 5 mg/kg (L-1210 ascites tumor; twice on day 1 and day 5): 156%; response vs control in vivo at 25 mg/kg (L-1210 ascites tumor; only once on day 1): 172%
CN(C)CCN1C(=O)c2cc(C3CC3)c3[nH]c4ccc(O)cc4c3c2C1=O [compound 49, N-(2-dimethylaminoethyl)-1-cyclopropyl-6-hydroxycarbazole-3,4-dicarboximidehydrochloride] | 0.2 | response vs control in vivo at 14 mg/kg (Ehrlich solid cancer; [2]): 19%
CN(C)CCN1C(=O)c2ccc3[nH]c4cc(O)ccc4c3c2C1=O [compound 28] | 0.8 (≈ 2.47 µM) | response vs control in vivo at 5 mg/kg (L-1210 ascites tumor; twice on day 1 and day 5): 176%; response vs control in vivo at 25 mg/kg (L-1210 ascites tumor; twice on day 1 and day 5): 379%
CCN(CC)CCN1C(=O)c2cc(C)c3[nH]c4ccc(O)cc4c3c2C1=O.Cl [compound 42, N-(2-diethylaminoethyl)-6-hydroxy-1-methylcarbazole-3,4-dicarboximide hydrochloride] | 0.063 | response vs control in vivo at 7 mg/kg (Ehrlich solid cancer; [2]): 18%
CN(C)CCN1C(=O)c2ccc3[nH]c4cc(O)c(O)cc4c3c2C1=O [compound 31] |  | response vs control in vivo at 5 mg/kg (L-1210 ascites tumor; twice on day 1 and day 5): 176%; response vs control in vivo at 50 mg/kg (Ehrlich solid cancer; [3]): 31%
CC1CC1c1cc2c(c3c1[nH]c1ccc(O)cc13)C(=O)N(CCN(C)C)C2=O (centres unmarked) [compound 74] | 0.16 (≈ 0.424 µM) | response vs control in vivo at 10 mg/kg (Ehrlich solid cancer; [2]): 19%
CN(C)CCN1C(=O)c2cc(-c3ccccc3)c3[nH]c4ccc(O)cc4c3c2C1=O [compound 27] | 0.31 (≈ 0.776 µM) | response vs control in vivo at 30 mg/kg (Ehrlich solid cancer; 30 mg/kg i.v., twice on day 1 and day 5, day 10, read-out: T/C (average tumor weight, treated/control)): 15%
CCc1cc2c(c3c1[nH]c1ccc(O)cc13)C(=O)N(CCN(C)C)C2=O [compound 39] | 0.04 (≈ 0.114 µM) | response vs control in vivo at 10 mg/kg (Ehrlich solid cancer; [2]): 20%
Cc1cc2c(c3c1sc1ccc(O)cc13)C(=O)N(CCN(C)C)C2=O [compound 61] | 0.08 (≈ 0.226 µM) | response vs control in vivo at 10 mg/kg (Ehrlich solid cancer; [3]): 27%
Cc1cc2c(c3c1[nH]c1ccc(O)cc13)C(=O)N(CCN(C)C)C2=O.Cl [compound 24, N-(2-dimethylaminoethyl)-6-hydroxy-1-methylcarbazole-3,4-dicarboximide hydrochloride] | 0.125 | response vs control in vivo at 1 mg/kg (L-1210 ascites tumor; twice on day 1 and day 5): > 377%; response vs control in vivo at 5 mg/kg (Ehrlich solid cancer; 5 mg/kg i.v., twice on day 1 and day 5, day 10, read-out: T/C (average tumor weight, treated/control)): 12%
Cc1cc2c(c3c1[nH]c1ccccc13)C(=O)N(CCN(C)C)C2=O [compound 2] | 0.16 (≈ 0.498 µM) | response vs control in vivo at 5 mg/kg (L-1210 ascites tumor; twice on day 1 and day 5): 180%
COc1ccc2[nH]c3ccc4c(c3c2c1)C(=O)N(CCN(C)C)C4=O [compound 15] | 3.13 (≈ 9.28 µM) | response vs control in vivo at 25 mg/kg (L-1210 ascites tumor; twice on day 1 and day 5): 160%
CN(C)CCN1C(=O)c2cc(C3CCC3)c3[nH]c4ccc(O)cc4c3c2C1=O.Cl [compound 59, N-(2-dimethylaminoethyl)-1-cyclobutyl-6-hydroxycarbazole-3,4-dicarboximide hydrochloride] | 0.16 | response vs control in vivo at 14 mg/kg (Ehrlich solid cancer; [2]): 12%
CN(C)CCN1C(=O)c2ccc3[nH]c4ccc(Cl)cc4c3c2C1=O [compound 9] | 3.13 (≈ 9.16 µM) | response vs control in vivo at 25 mg/kg (L-1210 ascites tumor; twice on day 1 and day 5): 131%
CN(C)CCN1C(=O)c2ccc3[nH]c4ccccc4c3c2C1=O [compound 1] | 3.13 (≈ 10.2 µM) | response vs control in vivo at 25 mg/kg (L-1210 ascites tumor; twice on day 1 and day 5): 137%; response vs control in vivo at 50 mg/kg (Ehrlich solid cancer; daily for six consecutive days (day 1 to 6), day 10, read-out: T/C (average tumor weight, treated/control)): 18%
CN(C)CCN1C(=O)c2ccc3[nH]c4cc5c(cc4c3c2C1=O)OCO5 [compound 22] | 0.16 (≈ 0.455 µM) | response vs control in vivo at 5 mg/kg (L-1210 ascites tumor; twice on day 1 and day 5): 143%; response vs control in vivo at 25 mg/kg (L-1210 ascites tumor; twice on day 1 and day 5): 160%
COc1ccc2[nH]c3cc(C)c4c(c3c2c1)C(=O)N(CCN(C)C)C4=O [compound 17] | 0.16 (≈ 0.455 µM) | response vs control in vivo at 5 mg/kg (L-1210 ascites tumor; twice on day 1 and day 5): 126%; response vs control in vivo at 25 mg/kg (L-1210 ascites tumor; twice on day 1 and day 5): 129%
COc1ccc2sc3c(C)cc4c(c3c2c1)C(=O)N(CCN(C)C)C4=O [compound 56] | 0.4 (≈ 1.09 µM) | 
CNCCN1C(=O)c2cc(C)c3[nH]c4ccc(OC)cc4c3c2C1=O [compound 64] | 0.63 (≈ 1.87 µM) | 

SMILES | MIC (HeLa S-3 cells; [1]) [µg/mL] | also measured
CN(C)CCN1C(=O)c2cc(C(F)(F)F)c3[nH]c4ccc(O)cc4c3c2C1=O [compound 67] | 2 (≈ 5.11 µM) | 
CNCCN1C(=O)c2cc(C)c3[nH]c4ccc(O)cc4c3c2C1=O [compound 69] | 0.25 (≈ 0.773 µM) | response vs control in vivo at 10 mg/kg (Ehrlich solid cancer; [2]): 19%
CCCCc1cc2c(c3c1[nH]c1ccc(O)cc13)C(=O)N(CCN(C)C)C2=O [compound 60] | 0.1 (≈ 0.264 µM) | 
COc1cccc2c1[nH]c1ccc3c(c12)C(=O)N(CCN(C)C)C3=O [compound 13] | 3.13 (≈ 9.28 µM) | 
COc1ccc2[nH]c3c(-c4ccc(F)cc4F)cc4c(c3c2c1)C(=O)N(CCN(C)C)C4=O [compound 79] | 1.6 (≈ 3.56 µM) | 
Cc1cc2c(c3c1[nH]c1ccc(OC(=O)N4CCCCC4)cc13)C(=O)N(CCN(C)C)C2=O [compound 44] |  | MIC (HeLa S-3 cells): 0.8 µg/mL (≈ 1.78 µM)
Cc1c2c(c3c([nH]c4ccc(OC(=O)N5CCC(N6CCCCC6)CC5)cc43)c1C)C(=O)N(CCN(C)C)C2=O [compound 75] |  | MIC (HeLa S-3 cells): 0.08 µg/mL (≈ 0.147 µM)
COc1ccc2[nH]c3c(C)cc4c(c3c2c1)C(=O)N(CCN(C)C)C4=O [compound 16] | 0.2 (≈ 0.569 µM) | 
CNC(=O)n1c2ccc(O)cc2c2c3c(cc(C)c21)C(=O)N(CCN(C)C)C3=O [compound 95] | 1.56 (≈ 3.96 µM) | 
CCNCCN1C(=O)c2cc(C)c3[nH]c4ccc(O)cc4c3c2C1=O [compound 71] | 0.16 (≈ 0.474 µM) | response vs control in vivo at 10 mg/kg (Ehrlich solid cancer; [2]): 16%
CN(C)CCN1C(=O)c2ccc3[nH]c4ccc(O)cc4c3c2C1=O.Cl [compound 23, N-(2-dimethylaminoethyl)-6-hydroxycarbazole-3,4-dicarboximide hydrochloride] | 0.8 | response vs control in vivo at 1 mg/kg (L-1210 ascites tumor; twice on day 1 and day 5): 128%; response vs control in vivo at 5 mg/kg (L-1210 ascites tumor; twice on day 1 and day 5): > 272%; response vs control in vivo at 15 mg/kg (Ehrlich solid cancer; 15 mg/kg i.v., twice on day 1 and day 5, day 10, read-out: T/C (average tumor weight, treated/control)): 10%
COc1ccc2[nH]c3c(C)cc4c(c3c2c1)C(=O)N(CCNCCO)C4=O [compound 82] | 0.4 (≈ 1.09 µM) | 
CCCc1cc2c(c3c1[nH]c1ccc(O)cc13)C(=O)N(CCN(C)C)C2=O [compound 51] | 0.2 (≈ 0.547 µM) | 
CN(C)CCN1C(=O)c2cc(Oc3ccc(O)cc3)c3[nH]c4ccc(O)cc4c3c2C1=O [compound 86] | 0.16 (≈ 0.371 µM) | 
COc1cc2c(c3c1[nH]c1ccc(O)cc13)C(=O)N(CCN(C)C)C2=O [compound 38] | 0.06 (≈ 0.17 µM) | response vs control in vivo at 7 mg/kg (Ehrlich solid cancer; [2]): 12%
Cc1c2c(c3c([nH]c4ccc(O)cc43)c1C)C(=O)N(CCN(C)C)C2=O [compound 26] | 0.016 (≈ 0.0455 µM) | 
CN(C)CCN1C(=O)c2cc(Cl)c3[nH]c4ccc(O)cc4c3c2C1=O [compound 32] | 0.31 (≈ 0.866 µM) | response vs control in vivo at 25 mg/kg (Ehrlich solid cancer; 25 mg/kg i.v., only once on day 1, day 10, read-out: T/C (average tumor weight, treated/control)): 9%
Cc1cc2[nH]c3ccccc3c2c2c1C(=O)N(CCN(C)C)C2=O [compound 3] | 0.1 (≈ 0.311 µM) | response vs control in vivo at 25 mg/kg (L-1210 ascites tumor; twice on day 1 and day 5): 167%
CCN(CC)CCN1C(=O)c2cc(Oc3ccccc3)c3[nH]c4ccc(O)cc4c3c2C1=O [compound 89] | 0.16 (≈ 0.361 µM) | 

— US5166204A, “Isoindole derivatives and salts thereof and antitumor agent comprising the same” (Toyama Chemical Co., Ltd., priority 1989, dated 1992)
